Ends that are not written are not given here.
Key:
[1] = system: Herpes zoster virus (HZV); conditions: Eye 8: 70-74 (1994); cited from earlier work
[2] = system: C. albicans (clinical isolate); assay: C. albicans viability, colony forming units (incl. comparison with fluconazole and ACTH); assay type: cell-based, Candida albicans; design: potency in reducing C. albicans viability / inhibition of C. albicans CFU: dose or concentration left out as unconfirmed; conditions: for potency in reducing C. albicans viability: comparison among peptides, fluconazole and ACTH; for effect on C. albicans colony forming units: 10^−15 to 10^−4M, 2 hours at 37° C., FIG. 7
Procedure: C. albicans (clinical isolate) were obtained from the collection of the Department of Microbiology, Ospedale Maggiore di Milano. C. albicans were maintained on Sabouraud'[…] periodically transferred to Sabouraud's agar plates and incubated for 48 hours at 28° C. To prepare stationary growth phase yeast, a colony was taken from the agar plate and transferred into 30 ml Sabouraud-dextrose broth and incubated for 72 hours at 32° C. Cells were centrifuged at 100×g for 10 minutes and the pellet was washed twice with distilled water. Cells were counted and suspended in Hank's balanced salt solution (“HBSS”) to the desired concentration. Viability, determined by the exclusion of 0.01% methylene blue, remained >98%. […] ID NO. […] Cells were then washed in cold distilled water and diluted with HBSS to a concentration of 100 organisms/ml. One ml aliquots were dispensed on blood agar plates and incubated for 48 hours at 37° C. Organism viability was estimated from the number of colonies formed. […] (SEQ. […] Fluconazole is a well established antifungal agent. The potency of the peptides in reducing C. albicans viability is studied in comparison with fluconazole and ACTH using similar procedures as in Example VII. […] There were at least six replicates for each concentration of peptide. […] Their inhibitory activity was similar to that of fluconazole. The “core” α-MSH sequence, α-MSH [4-10] (SEQ. […] (SEQ. ID NO. 3) and α-MSH [11-13] […] (SEQ. ID NO. 4) (p<0.05).

corneal epithelial cells = conditions: Lens Eye Toxic. Res. 6: 59-85 (1989); cited from earlier work
[3] = Peptides 6, 273-5 (1985); cited from earlier work
[4] = centrally administered; Peptides 9, 1285-8 (1989); cited from earlier work
[5] = Peptides 12, 767-71 (1991); cited from earlier work
[6] = system: HIV-1 infected promonocytic U1 cells; assay: HIV-p24 and reverse transcriptase release by U1 cells stimulated by IL-6, IL-10, PMA or crowding; assay type: cell-based; conditions: 10^−5 M; U1 cells induced by IL-6, IL-10, PMA, and in crowding conditions; FIG. 3
Procedure: In all experiments, each condition was tested in triplicate.

Keratomycosis = assay: Treatment of fungal ophthalmic infection, Keratomycosis, patient; assay type: in vivo; conditions: ophthalmic aqueous solution 10^−5 M, 3-5 drops four times daily for 7 days
Text: Upon examination, a patient is diagnosed as having Keratomycosis.

[7] = system: HIV-1 RNA in PMA-stimulated U1 cells; assay: HIV transcription, Northern blot analysis of HIV-RNA in PMA-stimulated U1 cells; assay type: cell-based; conditions: 10^−5M; PMA (1 ng/mL) stimulated U1 cells, 24 h; FIG. 4
Text: Total RNA was extracted by the guanidine thiocyanate phenol method using an RNA isolation kit (Tripure, Boehringer Mannheim, Indianapolis, Ind.), following the manufacturer's instructions. Ten μg of total RNA were separated by 0.8% agarose/formaldehyde gel electrophoresis and transferred onto nylon membrane. The filters were baked and hybridized for 18 hr with α^32 P-labeled HIV-full length probe (kind gift of L. Turchetto and E. Vicenzi, S. Raffaele Hospital, Milan, Italy). The radiolabeling reaction was performed using a DNA labeling kit (Ready-to-go, Pharmacia Biotech, San Francisco, Calif.). Filters were washed and exposed to X-ray film for 5 days. The labeled probe was removed by washing at 80° C. in 0.1×SSC containing 0.1% sodium dodecyl sulphate and then rehybridized with α^32 P-labeled glyceraldehyde-3-phosphate dehydrogenase (GAPDH) cDNA probe. Densitometric analysis was performed using ImageMaster™ VDS 3.0 software (Pharmacia Biotech) and results were expressed as density units.

[8] = system: Herpes simplex virus blepharitis; assay: Treatment of viral ophthalmic infection, HSV blepharitis, patient; assay type: in vivo; conditions: ophthalmic aqueous solution 10^−5 M, 3-5 drops four times daily for 7 days
Procedure: A patient is diagnosed as having Herpes simplex virus blepharitis. […] The patient is treated with 3-5 drops of the ophthalmic aqueous solution onto the surface of eyes four times daily for 7 days.

[9] = system: infectious keratitis of bacterial etiology; assay: Treatment of bacterial ophthalmic infection, bacterial keratitis, patient; assay type: in vivo; conditions: ophthalmic aqueous solution 10^−5 M, 3-5 drops four times daily for 7 days
Text: A patient presents complaining of eye pain when blinking and blurred vision. Upon examination the cornea appears subtly less transparent than normal cornea and may have ulcers on its surface. The diagnosis is infectious keratitis of bacterial etiology, which is confirmed by laboratory findings.

[10] = system: S. aureus with recombinant human urokinase; assay: Urokinase-induced growth-enhancement of S. aureus, colony counts; assay type: cell-based, Staphylococcus aureus; conditions: 10^−6 M; urokinase 500 U, four hours at 37° C.; FIG. 6; listed as α-MSH [11-13]
Procedure: In this experiment, the influence of α-MSH on urokinase-induced growth-enhancement is determined. Hart, D. A.; Loule, T.; Krulikl, W.; Reno, C., Staphylococcus Aureus Strains Differ in Their in Vitro Responsiveness to Human Urokinase: Evidence that Methicillin-Resistant Strains are Predominantly Nonresponsive to the Growth-Enhancing Effects of Urokinase, Can. J. Microbiol. 42, 1024-31 […]. […] (SEQ. ID NO. 4) or α-MSH [11-13] (SEQ. ID NO. […]) at 10^−6 M. Appropriate dilutions of S. aureus were dispensed on agar plates and colonies counted after 24 hours incubation at 37° C.

[11] = system: HIV-1 infected promonocytic U1 cell line; assay: HIV-p24 release by TNF-α stimulated U1 cells (ELISA); assay type: cell-based; conditions: 10^−13 to 10^−4 M, FIG. 2
Text: Before use, cells were washed three times with HBSS (Gibco) to remove extracellular virus.

[12] = system: Staphylococcus aureus (ATCC29213); assay: S. aureus viability, colony forming units; assay type: cell-based; design: dose or concentration left out as unconfirmed; conditions: 2 hours at 37° C.; FIG. 5
Procedure: Staphylococcus aureus (ATCC29213) was obtained from the collection of the Department of Microbiology, Ospedale Maggiore di Milano. […] (SEQ. ID NO 4), α-MSH [11-13] […] S. aureus were then washed in cold distilled water and diluted with HBSS to a concentration of 100 organisms/ml. One ml aliquots were dispensed on blood agar plates and incubated for 24 hours at 37° C. Organism viability was estimated from the number of colony forming units. (SEQ. ID NO. 4) and α-MSH [11-13]

Q: With Nc1nc2c(ncn2COCCO)c(=O)[nH]1 [Acyclovir] as the compound, how does the “preventative effect on ocular complications of HZV” value [1] read?
A: The value was “little or no preventative effect”.

Q: Which “potency in reducing C. albicans viability” value ([2]; FIG. 8) does the source give for “ACTH (18-39): ACTH fragment (18-39), also called CLIP [reference compound]” here?
A: Its value is “did not reduce”.

Q: With O=c1[nH]c(=O)n([C@H]2C[C@H](O)[C@@H](CO)O2)cc1I [Idoxurine] as the compound, how does the “toxicity to corneal epithelial cells” value (corneal epithelial cells) read?
A: The value was “toxic to corneal epithelial cells”.

Q: Which “potency in reducing fever relative to parent peptide α-MSH” value [3] does the source give for [Nle^4 DPhe^7]-α-MSH here?
A: The value was “approximately ten times more potent than the parent peptide”.

Q: Which “antipyretic potency relative to α-MSH (11-13) sequence” value (“antipyretic potency relative to α-MSH” below) [4] does the source give for “9-13 sequence: α-MSH 9-13 sequence (WGKPV; ends and bridges not checked; UniProt P01189 146-150, looked up, fragment)” here?
A: Its value is “almost devoid of activity”.

Q: For MEHFRWG (Ac-MEHFRWG-NH2) [α-MSH [4-10]], which “inhibition of C. albicans CFU” value ([2]; FIG. 8) is on record?
A: The value was “approximately 50%”.

Q: For “10-13 sequence: α-MSH (11-13) with glycine added to form the 10-13 sequence (GKPV; ends and bridges not checked; UniProt P01189 147-150, looked up, fragment)”, which “antipyretic potency relative to α-MSH” value [4] is on record?
A: Its value is “slightly decreased potency”.

Q: With “ACTH (1-39): Adrenocorticotropic Hormone (1-39) (SYSMEHFRWGKPVGKKRRPVKVYPNGAEDESAEAFPLEF; Corticotropin; UniProt P01189 138-176, looked up) [reference compound]” as the compound, how does the “potency in reducing C. albicans viability” value ([2]; FIG. 8) read?
A: The value was “did not reduce”.

Q: With [D-K^11] α-MSH 11-13 as the compound, how does the “anti-inflammatory activity relative to L-form tripeptide α-MSH 11-13” value [5] read?
A: The value was “same general potency as the L-form”.

Q: Which “potency in reducing C. albicans viability” value ([2]; FIG. 8) does the source give for “HFRWGKPV (Ac-HFRWGKPV-NH2) [α-MSH [6-13], α-MSH from residue 6 through residue 13]” here?
A: The value was “most effective”.

Q: With KPV as the compound, how does the “effect on RT (reverse transcriptase) release” value [6] read?
A: The value was “significantly inhibited”.

Q: And the “effect on p24 release” value [6]?
A: The value was “significantly inhibited”.

Q: And the “outcome of Keratomycosis after treatment” value (Keratomycosis)?
A: Its value is “either shows marked improvement or fully recovers”.

Q: And the “reduction of spliced HIV-1 RNA” value [7]?
A: Its value is “approximately 50%”.

Q: And the “reduction of unspliced HIV-1 RNA” value [7]?
A: The value was “approximately 50%”.

Q: What about the “HSV blepharitis symptom after treatment” value [8] of the same compound?
A: Its value is “substantially reduced”.

Q: And the “outcome of bacterial keratitis after treatment” value [9]?
A: Its value is “either shows marked improvement or fully recovers”.

Q: And the “effect on urokinase-enhanced S. aureus colony formation” value [10]?
A: The value was “significantly inhibited the enhancing effect of urokinase”.

Q: What about the “effect on p24 release” value [11] of the same compound?
A: The value was “significantly inhibited”.

Q: And the “effect on S. aureus colony formation (CFU)” value [12]?
A: The value was “inhibited”.

Q: What about the “effect on C. albicans colony forming units” value [2] of the same compound?
A: The value was “greatly reduced”.

Q: And the “potency in reducing C. albicans viability” value ([2]; FIG. 8)?
A: The value was “most effective”.

Q: Which “antipyretic potency relative to α-MSH” value [4] does the source give for “8-13 sequence: α-MSH 8-13 sequence (RWGKPV; ends and bridges not checked; UniProt P01189 145-150, looked up, fragment)” here?
A: Its value is “greater than that of the 11-13 sequence”.

Q: With “Val-Pro-Lys-AcCys-s-s-CysAc-Lys-Pro-Val [KPV dimer]” as the compound, how does the “effect on S. aureus colony formation (CFU)” value [12] read?
A: Its value is “inhibited”.

Q: What about the “effect on C. albicans colony forming units” value [2] of the same compound?
A: Its value is “inhibited”.

Source: patent publication US20040009181A1, “Treatment of ophthalmic conditions” (priority 2002, published 2004)
